Source: ChEMBL document CHEMBL1955862, “Novel N'-benzylidene benzofuran-3-carbohydrazide derivatives as antitubercular and antifungal agents” (2012)
Values after ≈ are worked out from the molar mass of the structure shown.

Columns and labels:
[1] = tested on: Mycobacterium tuberculosis; experiment: Antituberculosis activity against Mycobacterium tuberculosis H37Rv by REMA method; assay type: functional
[2] = tested on: Candida albicans; experiment: Antifungal activity against Candida albicans; assay type: functional

O=C(N/N=C/c1cccc2ccccc12)c1coc2ccccc12 was tested. Which MIC [1] did it give?
The MIC was 128 µg/mL (≈ 407 µM).

What about the MIC [2] of the same compound?
Its MIC is 125 µg/mL (≈ 398 µM).

O=C(N/N=C/c1c(Cl)cccc1Cl)c1coc2c(Cl)cc(Cl)cc12 was tested. Which MIC [1] did it give?
Its MIC is 128 µg/mL (≈ 318 µM).

What about the MIC [2] of the same compound?
Its MIC is 62.5 µg/mL (≈ 155 µM).

For O=C(N/N=C/c1cc(Cl)cc(Cl)c1O)c1coc2c(Cl)cc(Cl)cc12, which MIC [1] is on record?
The MIC was 128 µg/mL (≈ 306 µM).

And the MIC [2]?
The MIC was 250 µg/mL (≈ 598 µM).

For O=C(N/N=C/c1ccc(O)cc1)c1coc2c(Cl)cc(Cl)cc12, which MIC [1] is on record?
Its MIC is 128 µg/mL (≈ 367 µM).

And the MIC [2]?
The MIC was greater than 250 µg/mL.

Which MIC [1] does the source give for O=C(N/N=C/c1c(Cl)cccc1Cl)c1coc2ccccc12 here?
The MIC was 128 µg/mL (≈ 384 µM).

And the MIC [2]?
The MIC was greater than 250 µg/mL.

Which results are given for O=C(N/N=C/c1ccc(O)cc1)c1coc2ccccc12?
MIC [1]: 64 µg/mL (≈ 228 µM); MIC [2]: > 250 µg/mL

COc1ccc(/C=N/NC(=O)c2coc3c(Cl)cc(Cl)cc23)c(OC)c1 was tested. Which MIC [1] did it give?
Its MIC is 64 µg/mL (≈ 163 µM).

And the MIC [2]?
The MIC was greater than 250 µg/mL.

Which results are given for Cc1ccc(/C=N/NC(=O)c2coc3ccccc23)cc1?
MIC [1]: 128 µg/mL (≈ 460 µM); MIC [2]: > 250 µg/mL

For O=C(N/N=C/c1ccccc1)c1coc2c(Cl)cc(Cl)cc12, which MIC [1] is on record?
Its MIC is 2 µg/mL (≈ 6 µM).

And the MIC [2]?
The MIC was greater than 250 µg/mL.

What does the source list for O=C(N/N=C/c1ccc(Cl)cc1)c1coc2c(Cl)cc(Cl)cc12?
MIC [1]: 128 µg/mL (≈ 348 µM); MIC [2]: > 250 µg/mL

O=C(N/N=C/c1ccc([N+](=O)[O-])cc1)c1coc2c(Cl)cc(Cl)cc12 was tested. Which MIC [1] did it give?
Its MIC is 128 µg/mL (≈ 338 µM).

What about the MIC [2] of the same compound?
Its MIC is 125 µg/mL (≈ 331 µM).

Which results are given for O=C(N/N=C/c1ccccc1O)c1coc2c(Cl)cc(Cl)cc12?
MIC [1]: 32 µg/mL (≈ 91.6 µM); MIC [2]: > 250 µg/mL

Which results are given for O=C(N/N=C/c1cc(Cl)cc(Cl)c1O)c1coc2ccccc12?
MIC [1]: 128 µg/mL (≈ 367 µM); MIC [2]: 31.2 µg/mL (≈ 89.5 µM)

Which MIC [1] does the source give for O=C(N/N=C/c1ccccc1O)c1coc2ccccc12 here?
Its MIC is 64 µg/mL (≈ 228 µM).

What about the MIC [2] of the same compound?
The MIC was greater than 250 µg/mL.

How did the MIC [1] turn out when Cc1ccc(/C=N/NC(=O)c2coc3c(Cl)cc(Cl)cc23)cc1 was run?
The MIC was 128 µg/mL (≈ 369 µM).

What about the MIC [2] of the same compound?
Its MIC is less than 15.6 µg/mL.

How did the MIC [1] turn out when COc1ccc(/C=N/NC(=O)c2coc3ccccc23)c(OC)c1 was run?
Its MIC is 128 µg/mL (≈ 395 µM).

And the MIC [2]?
Its MIC is greater than 250 µg/mL.

What does the source list for O=C(N/N=C/c1ccccc1)c1coc2ccccc12?
MIC [1]: 2 µg/mL (≈ 7.57 µM); MIC [2]: > 250 µg/mL

What does the source list for O=C(N/N=C/c1ccc([N+](=O)[O-])cc1)c1coc2ccccc12?
MIC [1]: 128 µg/mL (≈ 414 µM); MIC [2]: > 250 µg/mL

Which results are given for O=C(N/N=C/c1ccc(Cl)cc1)c1coc2ccccc12?
MIC [1]: 128 µg/mL (≈ 428 µM); MIC [2]: > 250 µg/mL

What does the source list for O=C(N/N=C/c1cccc2ccccc12)c1coc2c(Cl)cc(Cl)cc12?
MIC [1]: 128 µg/mL (≈ 334 µM); MIC [2]: < 15.6 µg/mL

Which MIC [1] does the source give for NNC(=O)c1ccncc1 [ISONIAZID] here?
Its MIC is 0.25 µg/mL (≈ 1.82 µM).
